Test results from patent US20120046272A1, “Novel Therapeutic Compounds” (GRUNENTHAL GMBH, priority 2010, published 2012).

Tested on: mice
Test: Hot plate model of acute thermal pain
Format: in vivo
Details: hot plate 46.0° C.±1.0° C, tested prior to and 30 min after drug administration, cut-off 120 s
Method: The device consisted of an electrically heated surface and an open plexiglass tube (34 cm high×44 cm diameter), as per the hot plate test adapted from Eddy and Leimbach (1953); The animals were confined to the heated surface. The temperature was kept at 46.0° C.±1.0° C. Mice were placed on the hot plate, and the time, recorded with a stopwatch, until either licking of the hind paw or jumping were initiated. Animals were tested prior to and 30 min after drug administration. The pre-drug latencies were between 17 and 45 s. The maximum possible effect (MPE) was defined as the lack of a nociceptive response during the exposure to the heat stimulus. The percentage of MPE was calculated according to the formula: [(T1−T0)/(T2−T0)]×100, where T0 and T1 were the latencies obtained before and after drug injection, and T2 was the cut-off time (120 s).
Data are expressed as mean (±SEM) % MPE. p<0.05 versus vehicle control.

SMILES	antinociception in hot plate test (% MPE)
CCC(c1cccc(OC(=O)CC2(CN)CCCCC2)c1)C(C)CN(C)C (centres unmarked) [Compound of Formula 25]	induced dose-dependent antinociception and reached full efficacy
CN1CC[C@]23c4c5ccc(O)c4O[C@H]2[C@@H](O)C=C[C@H]3[C@H]1C5 [morphine]	induced dose-dependent antinociception and reached full efficacy
